What was measured:
Type in all cases: cell-based, human
HHFDPC = test: MTT proliferation of dermal papilla cells; settings: peptide 500 nM, 5 μM, 50 μM, 72 hours, vs untreated control, FIG. 1
Experimental: While culturing human hair follicle dermal dermal papilla cells (HHFDPC), the absorbance was measured after treatment with the peptide of the present invention to confirm whether there was an effect of promoting the proliferation of the HHFDPC dermal papilla cells.
Specifically, HHFDPC (Sciencell, USA) was seeded at 4×10^3 cells/well in a 96-well culture plate, cultured in MSC complete medium (mesenchymal stem cell complete media, Sciencell, USA) for 24 hours, and then the medium was replaced with serum free MSC complete medium and cultured for another 24 hours. Then, the HHFDPC was treated with the peptide of SEQ ID NO: 1 prepared in the Preparation Example at concentrations of 500 nM, 5 µM, and 50 μM, respectively, and cultured at 37° C. for 72 hours. As a positive control, minoxidil was treated at a concentration of 1 μM, and as a negative control, HHFDPC without any treatment was used. Then, 10 ? of 5 mg/mL MTT solution was added and cultured in a 37° C. CO2 incubator for 4 hours to stain the cells. After removing the medium, the cells were treated with 100 μl of DMSO and shaken for 10 minutes, and the number of HHFDPC cells was confirmed by measuring absorbance at a wavelength of 540 nm using a spectrophotometer.

β-catenin = test: Western blotting of β-catenin moved into the nucleus of HHFDPC; settings: HHFDPC nuclear protein, peptide 500 nM, 5 μM, 50 μM, 24 hours, vs control, FIG. 3
Experimental: In addition, in addition to p-AKT and p-ERK, in order to confirm the activation of β-catenin, which is known to affect cell proliferation and differentiation, whether β-catenin moved into the nucleus was confirmed through Western blotting. Specifically, the HHFDPC as in [Experiment Example 1-1] was seeded in a 6-well culture plate at an amount of 4×10^5 cells/well, cultured in MSC complete medium (mesenchymal stem cell complete media) for 24 hours. Next, the medium was replaced with serum free MSC complete medium and cultured again for 24 hours. Then, the HHFDPC was treated with the peptide of SEQ ID NO: 1 prepared in the Preparation Example at concentrations of 500 nM, […], and 50 μM, respectively, and cultured at 37° C. for 24 hours. As a positive control, minoxidil was treated at a concentration of 1 μM, and as a negative control, HHFDPC without any treatment was used. After washing with PBS, proteins in the nucleus were isolated using a nuclear protein extraction kit (Thermo scientific, USA). After electrophoresis using a 10% SDS-PAGE gel, it was transferred to a PVDF membrane and blocked using 5% skim milk at room temperature for 30 minutes. […] After washing again with 0.1% PBS-T (0.1% Tween-20 in PBS) three times for 15 minutes each, β-catenin was detected by treatment with ECL solution (GE Healthcare, USA).

Ha3-II = test: RT-PCR of Ha3-II in HHORSC; settings: peptide 500 nM, 5 μM, 50 μM, 72 hours, vs control without treatment, FIG. 6
Experimental: (§1) Specifically, HHORSC (human hair outer root sheath cell, Sciencell, USA) was seeded in a 6-well culture plate at 4×10^5 cells/well and then cultured in MSC complete medium (mesenchymal stem cell complete media) for 24 hours. Next, the medium was replaced with serum free MSC complete medium and cultured again for 24 hours. Then, the HHORSC was treated with the peptide of Preparation Example consisting of amino acid sequence of SEQ ID NO: 1 at concentrations of 500 nM, 5 μM, and 50 μM, respectively, and cultured at 37° C. for 72 hours. As a positive control, EGF was treated at a concentration of 50 nM, and as a negative control, HHORSC without any treatment was used. After washing with PBS, RNA was isolated by treating with 300 ? of easy blue (intron, Korea). Then, CDNA was synthesized using a cDNA synthesis kit (enzynomics, Korea) by quantification using nano drop, and PCR was performed using primer for Ha3-II, Keratin 14, and Keratin 19 (the base sequences of primer are listed in Table 3 below) and PCR premix (enzynomics, Korea). Electrophoresis was performed on a 1.5% agarose gel, and the mRNAs of Ha3-II, Keratin 14, and Keratin 19 were detected using a band analysis system (Bio-Rad gel image system).

p-ERK = test: Western blotting of phosphorylated ERK in HHFDPC; settings: peptide 500 nM, 5 μM, 50 μM, 24 hours, vs control not treated with the peptide, FIG. 2
Experimental: (§2) First, phosphorylated forms of AKT and ERK, which act as signaling molecules related to the proliferation of HHFDPC, were confirmed through Western blotting. Specifically, HHFDPC as in [Experiment Example 1-1] above was seeded at 4×10^5 cells/well in a 6-well culture plate, cultured in MSC complete medium (mesenchymal stem cell complete media) for 24 hours, and then the medium was replaced with serum free MSC complete medium and cultured for another 24 hours. Then, the HHFDPC was treated with the peptide of SEQ ID NO: 1 prepared in the Preparation Example at concentrations of 500 nM, 5 μM, and 50 µM, respectively, and cultured at 37° C. for 24 hours. As a positive control, minoxidil was treated at a concentration of 1 μM, and as a negative control, HHFDPC without any treatment was used. Then, Western blotting was performed to detect phosphorylated AKT and phosphorylated ERK. After washing with PBS, the cells were treated with 100 ? of lysis buffer to destroy cells, thereby obtaining cell lysate. After electrophoresis using a 10% SDS-PAGE gel, it was transferred to a PVDF membrane and blocked using 5% skim milk at room temperature for 30 minutes. […] After washing again with 0.1% PBS-T (0.1% Tween-20 in PBS) three times for 15 minutes each, p-AKT and p-ERK were detected by treatment with ECL solution (GE Healthcare, USA).

MSX2 = test: RT-PCR of MSX2 in HHGMC; settings: peptide 500 nM, 5 μM, 50 μM, 72 hours, vs untreated control, FIG. 7
Experimental: Specifically, HHGMC (human hair germinal matrix cell, Sciencell, USA) was seeded in a 6-well culture plate at 4×10^5 cells/well and then cultured in MSC complete medium (mesenchymal stem cell complete media) for 24 hours. Next, the medium was replaced with serum free MSC complete medium and cultured again for 24 hours. Then, the HHGMC was treated with the peptide of SEQ ID NO: 1 prepared in the Preparation Example at concentrations of 500 nM, 5 μM, and 50 µM, respectively, and cultured at 37° C. for 72 hours. As a positive control, EGF was treated at a concentration of 50 nM, and as a negative control, HHGMC without any treatment was used. After washing with PBS, RNA was isolated by treating with 300 ? of easy blue (intron, Korea). Next, cDNA was synthesized using a cDNA synthesis kit (enzynomics, Korea) by quantification using nano drop, and PCR was performed using primers for MSX2 (base sequences of primers are listed in Table 4 below) and PCR premix (enzynomics, Korea). Electrophoresis was performed on a 1.5% agarose gel, and MSX2 mRNA was detected using a band analysis system (Bio-Rad gel image system).

DKK-1 protein = test: Western blotting of DKK-1 protein in DHT-treated HHFDPC; settings: HHFDPC with DHT 100 nM, peptide 500 nM, 5 μM, 50 μM, 24 hours, vs negative control (DHT only), FIG. 5
Experimental: DKK-1 protein (dickkopf-related protein 1) is a hair loss-related protein known to be highly expressed in individuals with hair loss, especially male pattern hair loss, and its expression is known to be promoted by hormones such as DHT (Dihydrotestosterone). Accordingly, the expression of DKK-1 protein was induced by treating HHFDPC cells with DHT together with the peptide according to the Preparation Example of the present invention, and then the expression level of DKK-1 was measured through Western blotting to determine whether there was an effect of suppressing the expression of DKK-1 protein.
Specifically, HHFDPC as in [Experiment Example 1-1] was seeded in a 6-well culture plate at 4×10^5 cells/well and then cultured in MSC complete medium (mesenchymal stem cell complete media) for 24 hours. Next, the medium was replaced with serum free MSC complete medium and cultured again for 24 hours. In addition, the HHFDPC was treated with the peptide of SEQ ID NO: 1 prepared in Preparation Example at concentrations of 500 nM, 5 μM, and 50 μM, respectively, and at this time, DHT, an expression inducer of DKK-1 protein, was simultaneously treated at a concentration of 100 nM and then cultured at 37° C. for 24 hours. […] After washing again with 0.1% PBS-T (0.1% Tween-20 in PBS) three times for 15 minutes each, DKK-1 protein was detected by treatment with ECL solution (GE Healthcare, USA).

Keratin 14 = test: RT-PCR of Keratin 14 in HHORSC; settings: peptide 500 nM, 5 μM, 50 μM, 72 hours, vs control without treatment, FIG. 6
Experimental: as §1

Keratin 19 = test: RT-PCR of Keratin 19 in HHORSC; settings: peptide 500 nM, 5 μM, 50 μM, 72 hours, vs control without treatment, FIG. 6
Experimental: as §1

cyclin D1 = test: RT-PCR of cyclin D1 in HHFDPC; settings: peptide 500 nM, 5 μM, 50 μM, 24 hours, vs control without treatment, FIG. 4
Experimental: (§3) Furthermore, in order to determine whether the β-catenin moves to the nucleus and is activated to affect proliferation and differentiation, whether the expression of LEF-1, c-Myc and cyclin D1 (cyclin D1), which act as downstream factors, increases with β-catenin activation was confirmed through RT-PCR. Specifically, in the same manner as the previous Western blotting experiment, HHFDPC cells were cultured, treated with the peptides of the Preparation Example of the present invention at concentrations of 500 nM, 5 μM, and 50 μM, respectively, and cultured at 37° C. for 24 hours. After washing the cells with PBS, RNA was isolated by treating them with 300 […] of easy blue (intron, Korea). Then, CDNA was synthesized using a cDNA synthesis kit (enzynomics, Korea) by quantifying it with nano drop, and PCR was performed using primers for LEF-1, c-Myc and cyclin D1 (base sequences of the primers are listed in Table 2 below) and PCR premix (enzynomics, Korea). Electrophoresis was performed on a 1.5% agarose gel, and then the mRNA of LEF-1 and cyclin D1 was detected using a band analysis system (Bio-Rad gel image system).

c-Myc = test: RT-PCR of c-Myc in HHFDPC; settings: peptide 500 nM, 5 μM, 50 μM, 24 hours, vs control without treatment, FIG. 4
Experimental: as §3

LEF-1 = test: RT-PCR of LEF-1 in HHFDPC; settings: peptide 500 nM, 5 μM, 50 μM, 24 hours, vs control without treatment, FIG. 4
Experimental: as §3

p-AKT = test: Western blotting of phosphorylated AKT in HHFDPC; settings: peptide 500 nM, 5 μM, 50 μM, 24 hours, vs control not treated with the peptide, FIG. 2
Experimental: as §2

## CPRHENPVC [the peptide of the present invention]
HHFDPC
  proliferation of HHFDPC (absorbance at 540 nm, MTT): the proliferation of HHFDPC was promoted
β-catenin
  β-catenin moved into the nucleus: migration due to activation of β-catenin increased
Ha3-II
  Ha3-II mRNA: the amount of mRNA increased further
p-ERK
  p-ERK phosphorylation: phosphorylation was found to be increased
MSX2
  MSX2 mRNA: the amount of mRNA increased further
DKK-1 protein
  amount of DKK-1 protein: the amount of DKK-1 protein was found to be reduced
Keratin 14
  Keratin 14 mRNA: the amount of mRNA increased further
Keratin 19
  Keratin 19 mRNA: the amount of mRNA increased further
Cyclin D1
  cyclin D1 mRNA: the amount of mRNA increased further
c-Myc
  c-Myc mRNA: the amount of mRNA increased further
LEF-1
  LEF-1 mRNA: the amount of mRNA increased further
p-AKT
  p-AKT phosphorylation: phosphorylation was found to be increased

From US20240287133A1, “PEPTIDE HAVING ACTIVITY OF PREVENTING HAIR LOSS OR PROMOTING HAIR GROWTH, AND USE THEREOF” (CAREGEN CO., LTD., priority 2021, published 2024)
